ChEMBL document CHEMBL1811877, “Bioactive neolignans and lignans from the bark of Machilus robusta” (J Nat Prod, 2011)
The source made the active and inactive calls. The rule behind the calls is not given here.

Legend:
PC-12 [1] = test: Cytoprotection against serum deprivation-induced cellular damage of rat PC12 cells assessed as increase in cell viability at 10 uM after 48 hrs by MTT assay (reference value: 66.6 +/- 9.2%); assay type: functional
[2] = test system: Human immunodeficiency virus 1; test: Antiviral activity against Human immunodeficiency virus 1 assessed as inhibition of viral replication; assay type: functional, organism-based
[3] = test system: Human immunodeficiency virus 1; test: Antiviral activity against Human immunodeficiency virus 1 assessed as inhibition of viral replication at 0.001 uM; assay type: functional
WB-F344 = test: (§1) Hepatoprotective activity in rat WB-F344 cells assessed as inhibition of D-galactosamine-induced cell damage at 10 uM treated 1 hr before D-galactosamine challenge after 24 hrs by MTT assay; assay type: functional
PC-12 [4] = test: Cytoprotection against rotenone-induced toxicity in rat PC12 cells assessed as increase in cell viability at 10 uM after 48 hrs by MTT assay (reference value: 73.0 +/- 9.6%); assay type: functional
[5] = as §1; assay type: functional

Structure (SMILES)	Activity (PC-12 [1])	IC50 [2] [µM]	inhibition [3]	inhibition (WB-F344)	Activity (PC-12 [4])	inhibition [2]	inhibition at 10 µM [5] [%]	inhibition at 0.001 µM [3] [%]
COc1cc(C[C@H](C)[C@H](C)Cc2cc(OC)c(O[C@@H](C)[C@@H](O)c3ccc(O)c(OC)c3)c(OC)c2)ccc1O	inactive	2.01	inactive	inactive	inactive	–	–	–
COc1cc([C@H]2c3c(cc(OC)c(O)c3OC)C[C@@H](CO)[C@@H]2CO)cc(OC)c1O	79.4%	–	–	–	–	–	–	–
COc1cc(C[C@H](C)[C@H](C)Cc2cc(OC)c(O[C@H](C)[C@@H](O)c3ccc(O)c(OC)c3)c(OC)c2)ccc1O	inactive	2.52	inactive	inactive	inactive	–	–	–
COc1cc2c(cc1O)[C@H](c1cc(O)c(O)c(OC)c1)[C@@H](C)[C@@H](C)C2	inactive	–	inactive	–	inactive	inactive	77.2	–
COc1cc2c(cc1O)[C@H](c1ccc(O)c(O)c1)[C@@H](C)[C@@H](C)C2	inactive	–	inactive	inactive	inactive	inactive	–	–
COc1cc([C@@H]2OC[C@H]3[C@@H]2CO[C@H]3c2ccc(O)c(OC)c2)ccc1O [(-)-PINORESINOL]	73.2%	–	–	–	–	–	–	–
COc1cc(C[C@H](C)[C@H](C)Cc2cc(O)c(O)c(OC)c2)ccc1O	inactive	–	inactive	–	96.2%	inactive	68	–
COc1cc(C[C@H](C)[C@H](C)Cc2cc(OC)c(OC)c(OC)c2)ccc1O	inactive	–	inactive	inactive	inactive	inactive	–	–
COC(=O)c1cc(OC)c2c(c1-c1c(CO)cc(OC)c3c1OCO3)OCO2 [BICYCLOL]	–	–	–	–	–	–	67	–
COc1cc(C[C@H](C)[C@H](COC(C)=O)Cc2cc(OC)c(O)c(OC)c2)ccc1O	inactive	–	inactive	inactive	inactive	inactive	–	–
COc1cc([C@H]2O[C@@H](c3cc(OC)c(O)c(OC)c3)[C@H](C)[C@@H]2C)ccc1O	inactive	–	inactive	inactive	inactive	inactive	–	–
COc1cc2c(cc1O)C(=O)[C@H](C)[C@H](C)C2	inactive	–	inactive	inactive	inactive	inactive	–	–
COc1cc2c(cc1O)[C@H](c1cc(OC)c(OC)c(OC)c1)[C@@H](C)[C@@H](C)C2	inactive	–	inactive	inactive	inactive	inactive	–	–
COc1cc(C[C@H](COC(C)=O)[C@H](C)Cc2cc(OC)c(O)c(OC)c2)ccc1O	inactive	–	inactive	inactive	inactive	inactive	–	–
COc1cc(C[C@H](C)[C@H](C)Cc2ccc(O)cc2)ccc1O	inactive	–	inactive	inactive	inactive	inactive	–	–
COc1cc([C@H](O)[C@@H](C)Oc2ccc([C@H]3c4cc(O)c(OC)cc4C[C@@H](C)[C@@H]3C)cc2OC)ccc1O	inactive	–	inactive	inactive	inactive	inactive	–	–
COc1cc2c(cc1O)[C@H](c1cc(OC)c(O)c(OC)c1)[C@@H](C)[C@@H](C)C2	inactive	–	inactive	–	inactive	inactive	64	–
O=C1Nc2ccc(Cl)cc2[C@@](C#CC2CC2)(C(F)(F)F)O1 [EFAVIRENZ]	–	–	–	–	–	–	–	42.5
COc1cc(C[C@H](C)[C@H](C)Cc2cc(OC)c(O)c(OC)c2)ccc1O	inactive	–	inactive	inactive	inactive	inactive	–	–
COc1cc([C@@H]2OC[C@H](Cc3cc(OC)c(O)c(OC)c3)[C@H]2C)ccc1O	inactive	–	inactive	inactive	inactive	inactive	–	–
COc1cc2c(cc1O)[C@H](c1cc(OC)c(O)c(OC)c1)[C@@H](C)[C@@H](COC(C)=O)C2	inactive	–	inactive	inactive	inactive	inactive	–	–
COc1cc2c(cc1O)C(=O)[C@H](C)[C@@H](C)C2	inactive	–	inactive	inactive	inactive	inactive	–	–
